From US9526718B2, “Combination of effective substances causing synergistic effects of multiple targeting and use thereof” (VIVOZON, INC., priority 2011, dated 2016)

Tests used:
[1] = system: neuropathic pain rat model (SNL); experiment: Neuropathic pain rat model (spinal nerve ligation, SNL), von Frey up-down mechanical threshold; assay type: in vivo; settings: Example 1, s.c., alone or combined, MDL 11,939 2 or 5 mg/kg, ORG-25543 10 or 20 mg/kg, 30 and 60 min after administration
Description: In order to prepare a neuropathic pain rat model (spinal nerve ligation (SNL) model), a male adult Sprague-Dawley rat was anaesthetized with isoflurane and its spinal nerves L5 were tied firmly (Kim and Chung, An experimental model for peripheral neuropathy produced by segmental spinal nerve ligation in the rat. Pain, 50: 355-363, 1992). One week later after surgical operation, MDL 11,939 and ORG-25543 were administered respectively or in combination thereof, and a pain relieving effect was monitored.
MDL 11,939 (Tocris Bioscience, USA) and ORG-25543 (CBvest inc, Korea) were dissolved in DMA/PG (2:8). MDL 11,939 was subcutaneously injected into the rat model and, immediately, ORG-25543 was subcutaneously injected into another part of the rat model. Then, 30 minutes and 60 minutes after administration, the extent of pain suppression was analyzed based on behaviors of the rat model.
The behavioral experiment was carried out with strict observance of clinical test procedures including criteria on randomization, a blind test, and use of a control group. By providing a mechanical stimulus to the left sole of the foot, a shrinking reaction to the stimulus was measured. This measurement value was determined by an up-down method using a von Frey monofilament (Baik et al., 2003 E. J. Baik, J. M. Chung and K. Chung, Peripheral norepinephrine exacerbates neuritis-induced hyperalgesia, J Pain 4 (2003), pp. 212-221; Chaplan et al., 1994 S. R. Chaplan, F. W. Bach, J. W. Pogrel, J. M. Chung and T. L. Yaksh, Quantitative assessment of tactile allodynia in the rat paw, J Neurosci Methods 53 (1994), pp. 55-63; Dixon, 1980 W. J. Dixon, Efficient analysis of experimental observations, Annu. Rev. Pharmacol. Toxicol. 20 (1980), pp. 441-462).
In the same manner as Example 1, a male adult Sprague-Dawley rat was anaesthetized with isoflurane and its spinal nerves L5 were tied firmly. […]

[2] = system: serotonin release; settings: hypothalamic, rat; cited from earlier work
[3] = target: 5-HT2A receptor (Homo sapiens, UniProt P28223); settings: cited from earlier work
5-HT2A receptor, sequence (P28223 whole entry): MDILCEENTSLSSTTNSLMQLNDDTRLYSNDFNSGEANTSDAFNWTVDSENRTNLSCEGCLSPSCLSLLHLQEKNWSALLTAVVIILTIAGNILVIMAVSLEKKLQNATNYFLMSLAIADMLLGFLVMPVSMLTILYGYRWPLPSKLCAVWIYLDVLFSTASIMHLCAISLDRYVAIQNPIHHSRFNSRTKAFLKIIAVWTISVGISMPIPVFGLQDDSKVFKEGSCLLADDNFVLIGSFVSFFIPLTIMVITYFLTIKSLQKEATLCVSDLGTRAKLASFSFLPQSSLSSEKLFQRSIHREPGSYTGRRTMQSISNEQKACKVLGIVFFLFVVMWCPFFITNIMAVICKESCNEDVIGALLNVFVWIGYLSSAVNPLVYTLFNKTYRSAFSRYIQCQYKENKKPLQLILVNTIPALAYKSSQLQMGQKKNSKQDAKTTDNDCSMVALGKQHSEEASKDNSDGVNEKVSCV

OC(c1ccccc1)C1CCN(CCc2ccccc2)CC1 (centres unmarked) [MDL 11,939]
pain relieving (analgesic) effect [1]: no or very little pain relieving effect

COc1cc(C(=O)NCC2(N(C)C)CCCC2)cc(OC)c1OCc1ccccc1 [ORG-25543]
pain relieving (analgesic) effect [1]: no effect | pain relieving (analgesic) effect ([1]; listed as ORG2553): no or very little pain relieving effect

COc1cc2c(cc1OC)[C@@H]1Cc3ccc(OC)c(OC)c3CN1CC2 [d1-tetrahydropalmatine]
serotonin release [2]: mediates inhibition of serotonin release

CC(C)=CCc1c(O)cc2oc3cc(O)c(O)c(CC=C(C)C)c3c(=O)c2c1O [γ-mangostin]
antagonistic effect with respect to 5-HT2A receptor [3]: antagonistic effect
